Source: patent publication US8318712B2, “Concentrated liquid thyroid hormone composition” (Intervet International B.V., priority 2006, dated 2012)

Legend:
[1] = as reported by Sigma-Aldrich; cited from earlier work
[2] = Stability of levothyroxine sodium in aqueous HPBCD solution with or without stabilizers; format: physicochemical; conditions: experiments of Tables 2-4
From the text: The stability of levothyroxine sodium in an aqueous solution of HPBCD with or without stabilization was investigated.

[3] = Solubility in water, effect of levothyroxine sodium particle size; format: physicochemical; conditions: observed after 24 hours
Method: The solubilities of batches of levothyroxine sodium micronized (D99<13 μm) and not micronized (D99<125 μm) were investigated. Preparations with several amounts of active ingredient in a fixed volume of water were observed after 24 hours. In both cases, less than 100 μg of levothyroxine sodium was soluble per ml of water.

[4] = Stability of levothyroxine sodium in aqueous HPBCD solutions with phosphate and carbonate buffers, sealed container; format: physicochemical; conditions: experiments of Table 9
From the text: Applicants investigated the stability of levothyroxine sodium in aqueous HPBCD solutions with phosphate and carbonate buffers in a sealed container.

[5] = Solubility of levothyroxine sodium, effect of pH; format: physicochemical
From the text: To have an acceptable biological pH and to improve the solubility of levothyroxine, the pH preferably is at least about 8, or at least about 9.

[6] = Solubility in aqueous HPBCD solution, effect of complexing agent and copolymers; format: physicochemical
Method: In an aqueous solution of 30% (w/w) HPBCD (Kleptose HPB, Roquette, France), 1000 μg/ml of levothyroxine sodium was dissolved. Applicants have observed that similar levothyroxine sodium solubilities may be achieved at lesser concentrations of HPBCD by adding a copolymer(s), such as, for example, sodium carboxymethyl cellulose (“CMC”), hydroxypropylmethylcellulose 4000 (“HPMC”), and/or povidone 12PF.
0.5% w/w of CCM and 15% (w/w) of HPBCD,
0.5% w/w of HPMC and 20% (w/w) of HPBCD, or
2% w/w of Povidone 12PF and 20% (w/w) of HPBCD.

For O=S(=O)(O)CCCCNC1CCCCC1 [CABS, 4-[cyclohexylamino]-1-butanesulfonic acid], the “effective pH range” value [1] is listed as 10.0-11.4.
For NCCO [ethanolamine], the “effective pH range” value [1] is given as 6.0-12.0.
In the case of O=S(=O)(O)CC(O)CNC1CCCCC1 (stereo not shown) [CAPSO, 3-[cyclohexylamino]-2-hydroxy-1-propanesulphonic acid], the “effective pH range” value [1] is listed as 8.9-10.3.
In the case of CN [Methylamine], the “effective pH range” value [1] is given as 9.5-11.5.
For O=S(=O)(O)CCCNC1CCCCC1 [CAPS, N-cyclohexyl-3-aminopropanesulfonic acid], the “effective pH range” value [1] is listed as 9.7-11.1.
In the case of NCC(=O)O [Glycine], the “effective pH range” value [1] is listed as 8.8-10.6 and the pKa2 [1] is listed as 9.78.
For N[C@@H](Cc1cc(I)c(Oc2cc(I)c(O)c(I)c2)c(I)c1)C(=O)[O-].[Na+] [levothyroxine sodium], the “compatibility with HPBCD in aqueous solution” value [2] was “did not exhibit incompatibility”, the “levothyroxine sodium soluble per ml of water” value ([3]; micronized (D99<13 μm)) was “less than 100 μg per ml” and the “levothyroxine sodium soluble per ml of water” value ([3]; not micronized (D99<125 μm)) was “less than 100 μg per ml”. For the same molecule, the “compatibility with HPBCD in aqueous solution” value [4] was “did not exhibit incompatibility”, the solubility ([5]; pH 7.3) was 28 µg/mL and the “solubility relative to pH 7.3” value ([5]; pH 9.4) was 7 times greater. The “solubility relative to pH 7.3” value ([5]; pH 10.45) was 11 times greater, the levothyroxine sodium dissolved ([6]; aqueous solution of 30% (w/w) HPBCD) was 1000 µg/mL and the levothyroxine sodium dissolved ([6]; aqueous solution, 0.5% w/w of CCM and 15% (w/w) of HPBCD) was 1000 µg/mL. The levothyroxine sodium dissolved ([6]; aqueous solution, 0.5% w/w of HPMC and 20% (w/w) of HPBCD) was 1000 µg/mL and the levothyroxine sodium dissolved ([6]; aqueous solution, 2% w/w of Povidone 12PF and 20% (w/w) of HPBCD) was 1000 µg/mL.
For CC(C)(N)CO [AMP, 2-amino-2-methyl-1-propanol], the “effective pH range” value [1] is listed as 8.7-10.4.
